Measured values as given in ChEMBL document CHEMBL4819070, “Synthesis and biological evaluation of 2-(4-alkoxy-3-cyano)phenylpyrimidine derivatives with 4-amino or 4-hydroxy as a pharmacophore element binding with xanthine oxidase active site” (Bioorg Med Chem, 2021).
The source made the active and inactive calls. The calls are words filed in the database; no cut-off is given here.

Columns and labels:
[1] = biological target: T1, Xanthine dehydrogenase/oxidase (Bos taurus, UniProt P80457); experiment: Inhibition of bovine milk xanthine oxidase assessed as reduction in uric acid formation using xanthine as substrate preincubated for 15 mins followed by substrate addition measured for every 30 sec by spectrophotometric analysis
[2] = biological target: T1, Xanthine dehydrogenase/oxidase; experiment: Inhibition of bovine milk xanthine oxidase assessed as reduction in uric acid formation at 10 uM using xanthine as substrate preincubated for 15 mins followed by substrate addition measured for every 30 sec by spectrophotometric analysis relative to control; conditions: cattle, 0.5 min
[3] = biological target: T1, Xanthine dehydrogenase/oxidase; experiment: Mixed type inhibition of bovine milk xanthine oxidase assessed as inhibitory constant using xanthine as substrate preincubated for 15 mins followed by substrate addition measured for every 30 sec by spectrophotometric analysis
Rattus norvegicus [4] = experiment: Hypouricemic activity in Sprague-Dawley rat model of Potassium oxonate-induced acute hyperuricemia assessed as decrease in serum uric acid AUC (1 to 8 hrs) at 30 to 90 mg/kg, IG administered after potassium oxonate treatment and measured at 1 hr; type: functional, organism-based; conditions: dose 30-90 mg/kg
[5] = biological target: T1, Xanthine dehydrogenase/oxidase; experiment: Inhibition of bovine milk xanthine oxidase assessed as decrease in Vmax at 0.01 to 0.06 uM by Lineweaver-Burk plot analysis; conditions: cattle, dose 0.01-0.06 µM
Rattus norvegicus [6] = experiment: Hypouricemic activity in Sprague-Dawley rat model of Potassium oxonate-induced acute hyperuricemia assessed as decrease in serum uric acid at 30 to 90 mg/kg, IG administered after potassium oxonate treatment and measured at 1 hr; type: functional, organism-based; conditions: dose 30-90 mg/kg
Rattus norvegicus [7] = experiment: Hypouricemic activity in Sprague-Dawley rat model of Potassium oxonate-induced acute hyperuricemia assessed as decrease in serum uric acid at 10 mg/kg, IG administered after potassium oxonate treatment and measured upto 8 hrs; type: functional, organism-based; conditions: time hrs <=8
[8] = biological target: T1, Xanthine dehydrogenase/oxidase; experiment: Inhibition of bovine milk xanthine oxidase assessed as increase in Km at 0.01 to 0.06 uM by Lineweaver-Burk plot analysis; conditions: cattle, dose 0.01-0.06 µM

T1 sequence (P80457 whole entry): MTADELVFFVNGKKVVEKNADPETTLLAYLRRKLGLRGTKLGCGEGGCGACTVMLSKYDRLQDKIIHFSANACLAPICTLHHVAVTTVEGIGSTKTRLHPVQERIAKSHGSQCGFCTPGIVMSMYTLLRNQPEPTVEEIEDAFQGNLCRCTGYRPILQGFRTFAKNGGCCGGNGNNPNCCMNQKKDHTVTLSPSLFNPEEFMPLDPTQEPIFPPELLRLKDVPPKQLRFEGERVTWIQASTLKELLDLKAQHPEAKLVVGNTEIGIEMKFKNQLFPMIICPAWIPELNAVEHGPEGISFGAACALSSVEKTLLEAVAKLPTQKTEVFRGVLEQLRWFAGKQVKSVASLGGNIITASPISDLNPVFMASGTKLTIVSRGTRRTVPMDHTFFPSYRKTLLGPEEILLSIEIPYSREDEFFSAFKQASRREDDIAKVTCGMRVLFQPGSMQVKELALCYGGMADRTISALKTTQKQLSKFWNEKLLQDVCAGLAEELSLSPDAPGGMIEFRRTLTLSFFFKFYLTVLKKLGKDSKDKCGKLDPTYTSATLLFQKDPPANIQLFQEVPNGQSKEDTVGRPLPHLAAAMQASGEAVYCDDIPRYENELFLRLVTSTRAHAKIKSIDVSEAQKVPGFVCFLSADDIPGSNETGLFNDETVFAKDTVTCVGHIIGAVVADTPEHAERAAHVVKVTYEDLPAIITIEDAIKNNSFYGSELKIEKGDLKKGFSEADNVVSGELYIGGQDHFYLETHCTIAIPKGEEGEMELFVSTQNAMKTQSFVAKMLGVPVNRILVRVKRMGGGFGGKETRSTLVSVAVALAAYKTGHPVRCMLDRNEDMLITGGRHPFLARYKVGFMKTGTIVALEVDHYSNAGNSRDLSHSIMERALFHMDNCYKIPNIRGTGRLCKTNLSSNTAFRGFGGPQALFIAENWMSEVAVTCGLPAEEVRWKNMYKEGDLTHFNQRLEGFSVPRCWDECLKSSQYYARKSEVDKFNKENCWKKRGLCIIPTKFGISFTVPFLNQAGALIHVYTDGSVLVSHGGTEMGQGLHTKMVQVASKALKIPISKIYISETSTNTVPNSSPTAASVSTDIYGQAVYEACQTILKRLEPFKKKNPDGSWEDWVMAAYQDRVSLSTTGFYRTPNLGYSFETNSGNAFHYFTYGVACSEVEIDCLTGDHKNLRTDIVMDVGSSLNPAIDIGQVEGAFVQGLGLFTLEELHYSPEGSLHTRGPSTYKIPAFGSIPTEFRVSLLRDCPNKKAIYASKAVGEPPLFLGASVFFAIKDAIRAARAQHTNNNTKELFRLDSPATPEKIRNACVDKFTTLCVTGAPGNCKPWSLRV

Compound | IC50 [1] [nM] | also measured
CC(C)=COc1ccc(-c2nccc(O)n2)cc1C#N | 55 | 
N#Cc1cc(-c2ncccn2)ccc1OCc1ccccc1 | 1950 | 
N#Cc1cc(-c2nccc(O)n2)ccc1OCc1ccccc1F | 60 | 
CC(C)COc1ccc(-c2nccc(N)n2)cc1C#N | 262 | 
N#Cc1cc(-c2nccc(O)n2)ccc1O |  | inhibition at 10 µM [2]: < 50%
N#Cc1cc(-c2nccc(N)n2)ccc1OCC1CCCCC1 | 539 | 
CC(C)CCOc1ccc(-c2nccc(O)n2)cc1C#N | 46 | Ki [3]: 18 nM; Activity (Rattus norvegicus [4]): Active; inhibition (INH) [5]: Active; Activity (Rattus norvegicus [6]): Active; Activity (Rattus norvegicus [7]): inactive; inhibition (INH) [8]: Active
N#Cc1cc(-c2nccc(O)n2)ccc1OCc1ccc(Br)cc1 | 95 | 
N#Cc1cc(-c2nccc(O)n2)ccc1OCC1CCCCC1 | 73 | 
CC(C)COc1ccc(-c2nccc(O)n2)cc1C#N | 69 | 
N#Cc1cc(-c2nccc(N)n2)ccc1OCc1ccccc1 | 347 | 
N#Cc1cc(-c2nccc(O)n2)ccc1OCc1ccccc1 | 66 | 
N#Cc1cc(-c2nccc(O)n2)ccc1OCc1ccc(F)cc1 | 75 | 
N#Cc1cc(-c2nccc(O)n2)ccc1OCc1cccc(F)c1 | 77 | 
CC(C)COc1ccc(-c2nc(N)cc(O)n2)cc1C#N | 130 | 
N#Cc1cc(-c2nc(N)cc(O)n2)ccc1OCC1CCCCC1 | 275 | 
N#Cc1cc(-c2nc(N)cc(O)n2)ccc1OCc1ccccc1 | 209 | 
COc1ccc(-c2nccc(O)n2)cc1C#N | 179 | 
CC(C)(C)c1ccc(COc2ccc(-c3nccc(O)n3)cc2C#N)cc1 | 282 | 
N#Cc1cc(-c2nccc(O)n2)ccc1OCc1ccc(Cl)cc1 | 148 | 
CC(C)COc1ccc(-c2ncccn2)cc1C#N | 1610 | 
N#Cc1cc(-c2ncccn2)ccc1OCC1CCCCC1 | 4450 | 
Cc1ccc(COc2ccc(-c3nccc(O)n3)cc2C#N)cc1 | 79 | 
N#Cc1cc(-c2nccc(O)n2)ccc1OCC1CC1 | 93 | 
CC(C)Oc1ccc(-c2nccc(O)n2)cc1C#N | 74 | 
COc1ccc(COc2ccc(-c3nccc(O)n3)cc2C#N)cc1 | 193 | 
